From patent US9918915B2, “Personal care compositions providing enhanced cooling sensation” (THE PROCTER & GAMBLE COMPANY, priority 2007, dated 2018)
Where “and” joins values, the source holds several entries; their conditions need not be identical. Identical values can stand only once. Each block holds one compound with its values, some of them ahead of it.

Key:
[1] = concentration where the cooling effect could be clearly recognized; cited from earlier work
panelists = experiment: Sensory evaluation of cooling sensation after brushing with coolant dentifrice followed by aqueous rinse with or without calcium; assay type: in vivo, human; set-up: key to Cooling Sensation Score: 0 = no cooling, 60 = intense cooling; 7.5 = definite cooling; conditions: for Cooling Sensation Score: 0-60 scale
Procedure: Sensory evaluation studies of coolant activity were conducted using a methodology patterned after the techniques described in M. C. Meilgaard, et al., Sensory Evaluation Techniques, 4th Ed. (2007). In one study, a panel of 11 trained sensory experts evaluated cooling sensation experienced after brushing with a dentifrice containing coolant(s) followed by rinsing with an aqueous rinse containing a calcium ion source. Panelists brushed teeth with 1.5 grams of a test dentifrice (containing coolant) or control (no coolant) and then expectorated. After brush expectoration, panelists evaluated cooling intensity, assigning a number between 0 (no cooling) to 60 (intense cooling). Panelists then rinsed mouth with 15 ml. of an aqueous rinse (with or without calcium) and expectorated. After rinse expectoration, panelists evaluated cooling intensity according to the same 0 to 60 scale. Evaluations were conducted at 5, 15, 30, 45, 60 minute, etc. time points. At each evaluation, panelists were instructed to breathe in through pursed lips and evaluate overall cooling sensation. In this test, a numerical score of 7.5 indicates meaningful or definite cooling.

human TRPM8 = human TRPM8 (Homo sapiens, UniProt Q7Z2W7); experiment: FLIPR intracellular calcium flux (Fluo-4) in HEK cells stably transfected with human TRPM8; conditions: HEK cells with human TRPM8
Chain of human TRPM8 (Q7Z2W7 whole entry): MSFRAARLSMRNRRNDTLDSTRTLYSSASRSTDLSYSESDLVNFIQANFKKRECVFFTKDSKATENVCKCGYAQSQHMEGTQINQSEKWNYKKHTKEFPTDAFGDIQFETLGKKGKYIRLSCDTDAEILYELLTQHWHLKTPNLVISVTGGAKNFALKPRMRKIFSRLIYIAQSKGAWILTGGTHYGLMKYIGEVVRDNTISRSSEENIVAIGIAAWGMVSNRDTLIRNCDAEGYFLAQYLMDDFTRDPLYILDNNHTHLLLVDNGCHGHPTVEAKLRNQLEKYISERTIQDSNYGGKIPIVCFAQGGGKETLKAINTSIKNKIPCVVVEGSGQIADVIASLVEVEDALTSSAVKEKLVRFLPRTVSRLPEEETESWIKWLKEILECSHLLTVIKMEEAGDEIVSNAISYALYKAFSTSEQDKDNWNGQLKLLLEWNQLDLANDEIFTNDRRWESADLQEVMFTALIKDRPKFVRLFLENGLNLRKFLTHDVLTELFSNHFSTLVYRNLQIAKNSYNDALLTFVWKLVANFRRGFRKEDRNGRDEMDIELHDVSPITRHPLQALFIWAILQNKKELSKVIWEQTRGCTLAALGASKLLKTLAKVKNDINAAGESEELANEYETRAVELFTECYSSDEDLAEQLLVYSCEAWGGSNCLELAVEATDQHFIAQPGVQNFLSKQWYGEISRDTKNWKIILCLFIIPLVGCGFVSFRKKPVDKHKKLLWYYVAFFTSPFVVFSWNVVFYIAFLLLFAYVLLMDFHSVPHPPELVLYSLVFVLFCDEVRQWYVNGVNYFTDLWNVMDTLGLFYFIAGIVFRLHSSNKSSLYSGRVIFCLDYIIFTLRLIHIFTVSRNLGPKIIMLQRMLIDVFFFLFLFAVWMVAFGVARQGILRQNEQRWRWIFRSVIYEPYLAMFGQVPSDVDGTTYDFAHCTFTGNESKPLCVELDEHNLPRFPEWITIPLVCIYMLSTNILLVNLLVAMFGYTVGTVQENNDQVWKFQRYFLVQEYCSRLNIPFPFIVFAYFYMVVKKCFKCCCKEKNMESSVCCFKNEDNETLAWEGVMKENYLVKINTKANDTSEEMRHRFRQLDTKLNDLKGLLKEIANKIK

Compound: CC(C)[C@@H]1CC[C@@H](C)C[C@@H]1O [d-neomenthol]
Cooling threshold [1]: about 25,000 ppb

Compound: CC(C)[C@H]1CC[C@H](C)C[C@H]1O [l-neomenthol]
Cooling threshold [1]: about 3,000 ppb

Compound: CC1CCC(C(C)C)C(O)C1 (stereo not drawn) [Menthol, menthol]
Cooling threshold [1]: about 800 ppb | Cooling Sensation Score (panelists; 1500 ppm coolant in paste, rinse Ca+2 542 ppm, 0 min.): 18.0 | Cooling Sensation Score (panelists; 1500 ppm coolant in paste, rinse Ca+2 542 ppm, 5 min.): 17.5 | Cooling Sensation Score (panelists; 1500 ppm coolant in paste, rinse Ca+2 542 ppm, 15 min.): 4.4 | Cooling Sensation Score (panelists; 1500 ppm coolant in paste, rinse Ca+2 542 ppm, 30 min.): 0 | Cooling Sensation Score (panelists; 1500 ppm coolant in paste, rinse Ca+2 542 ppm, 45 min.): 0 | Cooling Sensation Score (panelists; 1500 ppm coolant in paste, rinse Ca+2 542 ppm, 60 min.): 0 | Calcium enhancing effect on cooling (panelists; 1500 ppm level of coolant in dentifrice): calcium enhancing effect was not observed

Sensation described by panelists (panelists; particularly when used at higher levels): “burning” sensation | Average Fluorescence (n = 3) (human TRPM8; 6.25 uM G-180 alone, Fluo-4): 14901.88 and 17511.73 and 17474.37 | Activation of the TRPM8 receptor (calcium ion flux vs. control) (human TRPM8; 6.25 uM): activated the TRPM8 receptor
Compound: CC1CCC(C(C)C)C(C(=O)Nc2ccc(CC#N)cc2)C1 (stereo not drawn) [Composition G-180, N-(4-cyanomethylphenyl)-ρ-menthanecarboxamide]
Cooling Sensation Score (panelists; 75 ppm coolant in paste, rinse Ca+2 0 ppm, 0 min.): 21.1 | Cooling Sensation Score (panelists; 75 ppm coolant in paste, rinse Ca+2 0 ppm, 5 min.): 23.7 | Cooling Sensation Score (panelists; 75 ppm coolant in paste, rinse Ca+2 0 ppm, 15 min.): 22.9 | Cooling Sensation Score (panelists; 75 ppm coolant in paste, rinse Ca+2 0 ppm, 30 min.): 15.0 | Cooling Sensation Score (panelists; 75 ppm coolant in paste, rinse Ca+2 0 ppm, 45 min.): 11.0 | Cooling Sensation Score (panelists; 75 ppm coolant in paste, rinse Ca+2 0 ppm, 60 min.): 5.8 | Cooling Sensation Score (panelists; 75 ppm coolant in paste, rinse Ca+2 271 ppm, 0 min.): 17.5 | Cooling Sensation Score (panelists; 75 ppm coolant in paste, rinse Ca+2 271 ppm, 5 min.): 18.3 | Cooling Sensation Score (panelists; 75 ppm coolant in paste, rinse Ca+2 271 ppm, 15 min.): 20.7 | Cooling Sensation Score (panelists; 75 ppm coolant in paste, rinse Ca+2 271 ppm, 30 min.): 16.8 | Cooling Sensation Score (panelists; 75 ppm coolant in paste, rinse Ca+2 271 ppm, 45 min.): 13.3 | Cooling Sensation Score (panelists; 75 ppm coolant in paste, rinse Ca+2 271 ppm, 60 min.): 8.4 | Cooling Sensation Score (panelists; 75 ppm coolant in paste, rinse Ca+2 542 ppm, 0 min.): 18.8 | Cooling Sensation Score (panelists; 75 ppm coolant in paste, rinse Ca+2 542 ppm, 5 min.): 25.0 | Cooling Sensation Score (panelists; 75 ppm coolant in paste, rinse Ca+2 542 ppm, 15 min.): 29.2 | Cooling Sensation Score (panelists; 75 ppm coolant in paste, rinse Ca+2 542 ppm, 30 min.): 24.4 | Cooling Sensation Score (panelists; 75 ppm coolant in paste, rinse Ca+2 542 ppm, 45 min.): 18.6 | Cooling Sensation Score (panelists; 75 ppm coolant in paste, rinse Ca+2 542 ppm, 60 min.): 14.1 | Cooling Sensation Score (panelists; 150 ppm coolant in paste, rinse Ca+2 0 ppm, 0 min.): 16.7 | Cooling Sensation Score (panelists; 150 ppm coolant in paste, rinse Ca+2 0 ppm, 5 min.): 16.0 | Cooling Sensation Score (panelists; 150 ppm coolant in paste, rinse Ca+2 0 ppm, 15 min.): 25.7 | Cooling Sensation Score (panelists; 150 ppm coolant in paste, rinse Ca+2 0 ppm, 30 min.): 19.5 | Cooling Sensation Score (panelists; 150 ppm coolant in paste, rinse Ca+2 0 ppm, 45 min.): 10.0 | Cooling Sensation Score (panelists; 150 ppm coolant in paste, rinse Ca+2 0 ppm, 60 min.): 1.5 | Cooling Sensation Score (panelists; 150 ppm coolant in paste, rinse Ca+2 271 ppm, 0 min.): 12.1 | Cooling Sensation Score (panelists; 150 ppm coolant in paste, rinse Ca+2 271 ppm, 5 min.): 22.5 | Cooling Sensation Score (panelists; 150 ppm coolant in paste, rinse Ca+2 271 ppm, 15 min.): 26.0 | Cooling Sensation Score (panelists; 150 ppm coolant in paste, rinse Ca+2 271 ppm, 30 min.): 17.1 | Cooling Sensation Score (panelists; 150 ppm coolant in paste, rinse Ca+2 271 ppm, 45 min.): 11.2 | Cooling Sensation Score (panelists; 150 ppm coolant in paste, rinse Ca+2 271 ppm, 60 min.): 0 | Cooling Sensation Score (panelists; 150 ppm coolant in paste, rinse Ca+2 542 ppm, 0 min.): 15.1 | Cooling Sensation Score (panelists; 150 ppm coolant in paste, rinse Ca+2 542 ppm, 5 min.): 21.9 | Cooling Sensation Score (panelists; 150 ppm coolant in paste, rinse Ca+2 542 ppm, 15 min.): 27.2 | Cooling Sensation Score (panelists; 150 ppm coolant in paste, rinse Ca+2 542 ppm, 30 min.): 24.8 | Cooling Sensation Score (panelists; 150 ppm coolant in paste, rinse Ca+2 542 ppm, 45 min.): 18.2 | Cooling Sensation Score (panelists; 150 ppm coolant in paste, rinse Ca+2 542 ppm, 60 min.): 8.0 | Potentiating effect of calcium ions on cooling intensity and duration (panelists; at the levels of coolant and calcium used): particularly evident | Duration of cooling with calcium (panelists; dentifrice followed by calcium rinse): up to 60 minutes
